Experimental data taken from PubChem BioAssay (NCI).
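Where inhibition never reached the appropriate level, the endpoint shown equals the highest concentration tested. Otherwise, values were interpolated linearly from a five-concentration, 48-hour dose response in 96-well plates. GI50: concentration for 50% inhibition of growth. TGI denotes the concentration required for complete inhibition of growth.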

Columns and labels:
Experiment in all cases: NCI anticancer screen, dose series, 48 h
K-562 leukemia = system: K-562 leukemia
NCI-H460 lung = system: NCI-H460 lung
OVCAR-5 ovarian = system: OVCAR-5 ovarian
786-0 renal = system: 786-0 renal
UO-31 renal = system: UO-31 renal
A498 renal = system: A498 renal
CCRF-CEM leukemia = system: CCRF-CEM leukemia
NCI-H522 lung = system: NCI-H522 lung
LXFL 529 NSCLC = system: LXFL 529 NSCLC
SNB-78 CNS = system: SNB-78 CNS

SMILES	GI50 (K-562 leukemia) [nM]	TGI (K-562 leukemia) [µM]	GI50 (NCI-H460 lung) [nM]	TGI (NCI-H460 lung) [µM]	GI50 (OVCAR-5 ovarian) [nM]	TGI (OVCAR-5 ovarian) [µM]	GI50 (786-0 renal) [nM]	TGI (786-0 renal) [µM]	GI50 (UO-31 renal) [nM]	TGI (UO-31 renal) [µM]	GI50 (A498 renal) [nM]	TGI (A498 renal) [µM]	GI50 (CCRF-CEM leukemia) [nM]	TGI (CCRF-CEM leukemia) [µM]	GI50 (NCI-H522 lung) [nM]	TGI (NCI-H522 lung) [µM]	TGI (LXFL 529 NSCLC) [µM]	TGI (SNB-78 CNS) [µM]
COc1ccc(N2CCN(C(=O)c3ccccc3Nc3ccnc(C(F)(F)F)c3)CC2)cc1	59300	> 100	50700	> 100	> 100000	> 100	> 100000	> 100	28000	> 100	12200	> 100	53900	> 100	18100	> 100	–	–
CC1=NNC(=NCCN(C)C)C/C1=C/c1ccccc1Cl	–	–	–	> 100	–	> 100	–	> 100	–	> 100	–	> 100	–	–	–	–	> 100	> 100
Cl.[Pt].[c-]1ccccc1-c1ccccn1.c1ccc(P(c2ccccc2)C([PH+](c2ccccc2)c2ccccc2)[PH+](c2ccccc2)c2ccccc2)cc1	658	13.6	2290	10	2900	23.9	3200	14.4	1800	6.28	1850	5.89	2400	> 100	1570	7.14	–	–
NC(=O)CCC(NC(=O)OCc1ccccc1)C(=O)OCC(=O)c1ccccc1 (stereo not drawn)	> 100000	> 100	> 100000	> 100	> 100000	> 100	> 100000	> 100	> 100000	> 100	> 100000	> 100	> 100000	> 100	> 100000	> 100	–	–
O=C(c1ccccc1)C1C(C(=O)c2ccccc2)N1Cc1ccccc1 (stereo not drawn)	–	> 100	–	> 100	–	> 100	–	> 100	–	> 100	–	> 100	–	> 100	–	74.6	–	–
Cc1ccc2c(c1)C(=O)c1c-2n(CCCN)c(=O)c2cc([N+](=O)[O-])ccc12	110	0.721	34.9	0.629	873	1.58	57.6	0.208	144	0.811	5680	17.1	6.83	0.0559	200	0.985	–	–
Cc1ccc(Cl)cc1Nc1nc(C(F)(F)F)ccc1C(=O)Nc1cccc(C(F)(F)F)c1	3590	> 100	2790	10.1	2590	11.4	3160	11.8	2840	12.7	2970	8.59	2800	11	1780	6.37	–	–
O=C(NCc1cccnc1)/C(=C\c1ccc(Br)cc1)S(=O)(=O)c1ccccc1	423	13	714	2.29	929	2.33	1150	2.44	904	2.21	1360	2.71	315	4.5	380	1.58	–	–
C=C1CCC2C3(C)COC(c4ccc(NC(C)=O)cc4)OC3CCC2(C)C1C/C=C1/C(=O)OCC1O (stereo not drawn)	2260	> 100	4710	> 100	> 100000	> 100	> 100000	> 100	5430	> 100	> 100000	> 100	3080	> 100	4530	> 100	–	–
Cn1nc(C(F)(F)F)c(-c2ccc(Cl)c(C(F)(F)F)c2)c1-c1ccc(OCc2ccc(Cl)cc2)cc1O	1840	7.47	1710	5.64	1830	8.26	1800	7.12	1260	4.39	1050	4.1	1850	6.81	1470	5.64	–	–
Oc1ccc2oc3ncc(Cl)c(-c4ccccc4)c3c2c1	> 100000	> 100	> 100000	> 100	> 100000	> 100	93.9	> 100	> 100000	> 100	> 100000	> 100	21200	63.2	> 100000	> 100	–	–
COc1ccc(-c2ccc(/C=C/C(=O)NO)cc2)cc1	2390	> 100	142	4.46	1740	17.7	990	3.79	281	2.14	1400	3.76	48.1	> 100	801	16.4	–	–
O=C1NC(=O)/C(=C/C=C/c2ccccc2)S1	3270	> 100	2830	13.8	14100	> 100	366	4.27	2810	30.4	373	18.8	2010	> 100	7820	52.7	–	–
CC1(C)N=C(N)N=C(N)N1c1cccc(C#N)c1	293	> 100	2800	> 100	2740	> 100	578	> 100	5900	> 100	20900	> 100	3050	> 100	4680	> 100	–	–
Nc1ncnc2c1c(C(F)(F)F)cn2[C@@H]1O[C@H](CO)[C@@H](O)[C@H]1O	304	1.41	262	> 43.6	1020	> 72.2	2150	> 100	928	5.01	93.6	1.95	102	> 100	319	3.15	–	–
